# Laboratory results as given in BindingDB's records for doi:10.1016/j.ejmech.2018.12.027 (National Taiwan University, 2019).
# Assay: Inhibition of influenza A virus (A/WSN/1933(H1N1)) neuraminidase using MUNANA as fluorogenic substrate preincubated for 10 mins followed by substrate addition and measured after 15 mins by fluorometric assay
row,SMILES,IC50 [nM]
1,CCC(CC)O[C@@H]1C=C([B-](F)(F)F)C[C@H](NC(=N)N)[C@H]1NC(C)=O,20
2,CCCCOS(=O)(=O)C1=C[C@@H](OC(CC)CC)[C@H](NC(C)=O)[C@@H](NC(=N)N)C1,3.3
3,CCC(CC)O[C@@H]1C=C(S(=O)(=O)CCc2ccncc2)C[C@H](NC(=N)N)[C@H]1NC(C)=O,9.8
4,CCC(CC)O[C@@H]1C=C([B-](F)(F)F)C[C@H](N)[C@H]1NC(C)=O,3400
5,CCCCOS(=O)(=O)C1=C[C@@H](OC(CC)CC)[C@H](NC(C)=O)[C@@H](N)C1,27
6,CCC(CC)O[C@@H]1C=C(S(=O)(=O)O)C[C@H](NC(=N)N)[C@H]1NC(C)=O,1.3
7,CCC(CC)O[C@@H]1C=C(S(=O)(=O)O)C[C@H](N)[C@H]1NC(C)=O,1.8
8,CCC(CC)O[C@@H]1C=C(S(C)(=O)=O)C[C@H](N)[C@H]1NC(C)=O,180
9,CCC(CC)O[C@@H]1C=C(B(O)O)C[C@H](NC(=N)N)[C@H]1NC(C)=O,28
10,CCC(CC)O[C@@H]1C=C(S(=O)(=O)CCc2ccncc2)C[C@H](N)[C@H]1NC(C)=O,330
